Patent publication US7790947B2 (priority 2001, dated 2010)

Key:
hemoglobin = hemoglobin (Homo sapiens, UniProt P68871); conditions: cited from earlier work
TSS-1 production = assay: Inhibition of TSS-1 production by salt or acid residue in absorbent foam; type: cell-based, S. aureus; conditions: residual salt or acid in dried foam, between 0.1% and 10% weight percent of foam
TSST-1 toxin = TSST-1 toxin (Staphylococcus aureus, UniProt P06886); conditions: mechanism unknown; cited from earlier work
[1] = tested on: TSST-1 toxin production by S. aureus; conditions: cited from earlier work

hemoglobin, sequence (P68871 2-147 limits assumed): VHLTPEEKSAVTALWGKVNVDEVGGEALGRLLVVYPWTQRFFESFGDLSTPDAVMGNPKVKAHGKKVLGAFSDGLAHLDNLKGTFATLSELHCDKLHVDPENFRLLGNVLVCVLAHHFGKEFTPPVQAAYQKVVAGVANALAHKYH
hemoglobin, sequence (P69905 2-142 partner limits assumed): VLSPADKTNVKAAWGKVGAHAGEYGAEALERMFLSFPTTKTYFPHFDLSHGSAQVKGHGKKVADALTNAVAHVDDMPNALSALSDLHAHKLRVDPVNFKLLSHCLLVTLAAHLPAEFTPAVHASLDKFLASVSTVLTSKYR
TSST-1 toxin, sequence (P06886 41-234 limits assumed): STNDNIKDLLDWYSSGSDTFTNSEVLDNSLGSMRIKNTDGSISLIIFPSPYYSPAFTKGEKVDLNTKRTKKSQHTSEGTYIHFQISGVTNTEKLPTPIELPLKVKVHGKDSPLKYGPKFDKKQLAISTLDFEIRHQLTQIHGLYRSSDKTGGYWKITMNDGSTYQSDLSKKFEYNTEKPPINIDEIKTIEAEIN

Row | Molecule | inhibition of TSS-1 production (TSS-1 production) | effect on toxin (TSST-1) production by S. aureus [1] | also measured
1 | O=C(O)C(COP(=O)(O)O)OP(=O)(O)O (stereo not drawn) [BPG, 2,3-bisphosphoglycerate] |  |  | lowering of the affinity of oxygen for hemoglobin (factor) (hemoglobin): 26
2 | [Ca+2].[Cl-].[Cl-] [CaCl2] | inhibit TSS-1 production |  | 
3 | [Cl-].[Cl-].[Mg+2] [MgCl2] | inhibit TSS-1 production |  | 
4 | O=C1O[C@H]([C@@H](O)CO)C(O)=C1O [ascorbic acid] | inhibit TSS-1 production | reduce toxin production and/or deactiviate the toxin TSST-1 | deactivation of the toxin (TSST-1 toxin): deactivates the toxin
5 | OCC(O)CO [glycerol] |  | reduce toxin production and/or deactiviate the toxin TSST-1 | 
6 | O=C1O[C@H]([C@@H](O)CO)C([O-])=C1O.[Na+] [sodium ascorbate] | inhibit TSS-1 production |  | 
7 | tocopherol |  | reduce toxin production and/or deactiviate the toxin TSST-1 | 
